Reference: ChEMBL document CHEMBL5465560, “Selectivity Literature for EUbOPEN Chemogenomic Library” (2024)

Assays:
[1] = biological target: Cyclin-dependent kinase 9 (Homo sapiens, UniProt P50750); experiment: Selectivity interaction (Kinase panel (KiNativ target engagement assay in Jurkat cells)) EUB0001635a CDK9; type: cell-based; settings: at 1 µM
[2] = biological target: Ribosomal protein S6 kinase alpha-1 (Homo sapiens, UniProt Q15418); experiment: Selectivity interaction (ActivX KiNativ screen (kinase selectivity in THP-1 cell lysates)) EUB0000639a RPS6KA1; type: subcellular; settings: lysate, at 0.04 µM
Chain of Ribosomal protein S6 kinase alpha-1 (Q15418 whole entry): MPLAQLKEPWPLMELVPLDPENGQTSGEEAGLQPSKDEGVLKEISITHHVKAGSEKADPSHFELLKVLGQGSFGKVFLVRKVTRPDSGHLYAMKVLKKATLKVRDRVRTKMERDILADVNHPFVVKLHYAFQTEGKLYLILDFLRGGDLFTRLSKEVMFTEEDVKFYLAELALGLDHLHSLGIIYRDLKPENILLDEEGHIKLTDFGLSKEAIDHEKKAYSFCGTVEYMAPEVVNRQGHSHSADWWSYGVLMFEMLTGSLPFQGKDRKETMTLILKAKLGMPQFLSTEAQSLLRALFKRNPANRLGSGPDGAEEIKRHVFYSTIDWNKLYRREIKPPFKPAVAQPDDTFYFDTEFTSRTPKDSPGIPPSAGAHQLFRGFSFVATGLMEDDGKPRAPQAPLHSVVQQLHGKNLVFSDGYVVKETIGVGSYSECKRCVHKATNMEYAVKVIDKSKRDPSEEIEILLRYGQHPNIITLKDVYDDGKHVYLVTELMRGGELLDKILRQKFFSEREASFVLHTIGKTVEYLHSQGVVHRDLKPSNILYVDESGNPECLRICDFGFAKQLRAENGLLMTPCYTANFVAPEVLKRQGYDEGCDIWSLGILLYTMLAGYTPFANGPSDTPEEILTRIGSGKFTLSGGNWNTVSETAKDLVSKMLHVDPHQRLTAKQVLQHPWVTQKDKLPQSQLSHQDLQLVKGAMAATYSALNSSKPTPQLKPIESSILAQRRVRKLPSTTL

[3] = biological target: Serine/threonine-protein kinase MRCK alpha (Homo sapiens) (UniProt Q5VT25); settings: at 10 µM
[4] = biological target: T1, Cyclin-dependent kinase-like 2 (Homo sapiens) (UniProt Q92772); experiment: Selectivity interaction (KinomeScan (DiscoverX)) EUB0000092b CDKL2; settings: at 10 µM
T1 sequence (whole entry): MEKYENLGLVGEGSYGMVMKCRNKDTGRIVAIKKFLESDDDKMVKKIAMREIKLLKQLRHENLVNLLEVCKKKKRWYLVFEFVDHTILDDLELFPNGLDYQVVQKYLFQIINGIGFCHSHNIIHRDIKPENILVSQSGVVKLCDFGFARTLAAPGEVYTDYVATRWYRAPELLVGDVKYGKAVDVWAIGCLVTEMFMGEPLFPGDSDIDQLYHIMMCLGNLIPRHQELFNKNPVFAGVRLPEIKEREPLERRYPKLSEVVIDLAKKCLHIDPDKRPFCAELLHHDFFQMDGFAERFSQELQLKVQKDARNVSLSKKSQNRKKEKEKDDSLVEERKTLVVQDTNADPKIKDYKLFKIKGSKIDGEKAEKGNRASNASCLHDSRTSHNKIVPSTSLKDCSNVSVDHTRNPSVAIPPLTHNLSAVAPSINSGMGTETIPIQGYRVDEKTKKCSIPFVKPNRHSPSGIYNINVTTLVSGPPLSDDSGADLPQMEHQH

[5] = biological target: Casein kinase I isoform gamma-3 (Homo sapiens) (UniProt Q9Y6M4); experiment: Selectivity interaction (Ambit KINOMEscan and KiNATiv profiling in Jurkat cells) EUB0000090b CSNK1G3; type: cell-based; settings: at 1 µM
Chain of Casein kinase I isoform gamma-3 (Homo sapiens) (Q9Y6M4 whole entry, looked up, canonical isoform): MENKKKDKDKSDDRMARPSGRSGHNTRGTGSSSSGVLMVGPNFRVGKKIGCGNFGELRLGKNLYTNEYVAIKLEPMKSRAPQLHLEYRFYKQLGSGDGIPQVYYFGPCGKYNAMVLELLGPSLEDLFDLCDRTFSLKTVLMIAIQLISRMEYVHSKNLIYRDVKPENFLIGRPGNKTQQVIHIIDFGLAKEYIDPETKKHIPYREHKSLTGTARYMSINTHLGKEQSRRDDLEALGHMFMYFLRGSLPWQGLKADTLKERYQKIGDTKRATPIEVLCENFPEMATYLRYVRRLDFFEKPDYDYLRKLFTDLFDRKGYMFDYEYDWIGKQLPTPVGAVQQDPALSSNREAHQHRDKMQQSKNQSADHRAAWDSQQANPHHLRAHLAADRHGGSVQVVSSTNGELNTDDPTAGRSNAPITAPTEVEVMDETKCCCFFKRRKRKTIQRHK

[6] = biological target: Serine/threonine-protein kinase Nek6 (Homo sapiens) (UniProt Q9HC98); experiment: Selectivity interaction (KinomeScan (DiscoverX)) EUB0000045b NEK6
Chain of Serine/threonine-protein kinase Nek6 (Homo sapiens) (Q9HC98 whole entry): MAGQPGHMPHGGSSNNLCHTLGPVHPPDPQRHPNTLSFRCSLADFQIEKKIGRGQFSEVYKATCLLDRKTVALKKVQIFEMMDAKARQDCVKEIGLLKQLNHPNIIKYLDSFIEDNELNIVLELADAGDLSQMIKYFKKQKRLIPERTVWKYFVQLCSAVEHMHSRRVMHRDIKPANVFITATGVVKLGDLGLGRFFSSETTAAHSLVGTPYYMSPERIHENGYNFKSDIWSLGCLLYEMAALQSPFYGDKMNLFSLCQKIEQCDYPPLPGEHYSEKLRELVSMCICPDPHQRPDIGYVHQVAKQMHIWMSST

[7] = biological target: Tyrosine-protein kinase Srms (Homo sapiens) (UniProt Q9H3Y6); experiment: Selectivity interaction (KinomeScan (DiscoverX)) EUB0000618a SRMS; settings: at 10 µM
Chain of Tyrosine-protein kinase Srms (Homo sapiens) (Q9H3Y6 whole entry): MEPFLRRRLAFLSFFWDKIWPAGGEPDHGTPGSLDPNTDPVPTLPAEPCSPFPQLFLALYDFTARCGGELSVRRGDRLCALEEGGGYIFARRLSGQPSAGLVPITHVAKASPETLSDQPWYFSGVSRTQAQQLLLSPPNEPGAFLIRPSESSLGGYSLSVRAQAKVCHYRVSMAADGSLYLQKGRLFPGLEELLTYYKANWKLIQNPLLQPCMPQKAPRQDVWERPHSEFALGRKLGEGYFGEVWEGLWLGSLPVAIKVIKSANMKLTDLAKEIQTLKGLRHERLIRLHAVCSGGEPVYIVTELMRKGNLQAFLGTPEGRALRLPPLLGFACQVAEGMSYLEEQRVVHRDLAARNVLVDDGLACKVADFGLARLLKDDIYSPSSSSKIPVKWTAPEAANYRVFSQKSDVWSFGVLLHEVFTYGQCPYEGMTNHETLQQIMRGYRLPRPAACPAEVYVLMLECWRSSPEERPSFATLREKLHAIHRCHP

[8] = test system: T2, Receptor-type tyrosine-protein kinase FLT3 (Homo sapiens), P36888 [N841I]; settings: at 10 µM
T2 sequence (whole entry): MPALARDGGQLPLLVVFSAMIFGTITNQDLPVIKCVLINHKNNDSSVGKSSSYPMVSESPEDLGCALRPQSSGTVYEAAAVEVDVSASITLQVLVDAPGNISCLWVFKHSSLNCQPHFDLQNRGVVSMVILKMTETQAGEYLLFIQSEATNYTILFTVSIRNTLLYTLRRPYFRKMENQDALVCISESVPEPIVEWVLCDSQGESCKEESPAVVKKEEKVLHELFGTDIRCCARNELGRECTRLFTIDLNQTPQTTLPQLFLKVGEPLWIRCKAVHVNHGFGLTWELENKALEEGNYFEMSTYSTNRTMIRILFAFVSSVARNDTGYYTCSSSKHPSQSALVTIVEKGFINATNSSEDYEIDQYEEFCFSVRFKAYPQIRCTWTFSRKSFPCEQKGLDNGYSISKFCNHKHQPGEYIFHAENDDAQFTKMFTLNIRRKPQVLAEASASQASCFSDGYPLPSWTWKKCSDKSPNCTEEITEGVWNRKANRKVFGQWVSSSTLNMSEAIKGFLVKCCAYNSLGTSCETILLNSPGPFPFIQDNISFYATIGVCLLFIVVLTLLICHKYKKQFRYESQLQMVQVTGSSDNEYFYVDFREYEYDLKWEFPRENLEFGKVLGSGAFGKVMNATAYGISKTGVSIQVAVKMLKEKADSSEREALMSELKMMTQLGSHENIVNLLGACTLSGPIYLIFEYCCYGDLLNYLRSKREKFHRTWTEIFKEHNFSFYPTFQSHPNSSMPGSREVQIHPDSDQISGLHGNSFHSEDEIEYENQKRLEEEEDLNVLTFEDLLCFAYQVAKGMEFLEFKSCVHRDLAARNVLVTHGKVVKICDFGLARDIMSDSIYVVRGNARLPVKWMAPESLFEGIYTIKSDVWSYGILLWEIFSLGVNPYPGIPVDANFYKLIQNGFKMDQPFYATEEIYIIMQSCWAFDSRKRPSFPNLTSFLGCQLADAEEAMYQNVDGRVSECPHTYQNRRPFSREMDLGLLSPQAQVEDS

[9] = biological target: T3, Serine/threonine-protein kinase Nek11 (Homo sapiens) (UniProt Q8NG66); experiment: Selectivity interaction (KinomeScan (DiscoverX)) EUB0001619a NEK11; settings: at 1 µM
T3 sequence (whole entry): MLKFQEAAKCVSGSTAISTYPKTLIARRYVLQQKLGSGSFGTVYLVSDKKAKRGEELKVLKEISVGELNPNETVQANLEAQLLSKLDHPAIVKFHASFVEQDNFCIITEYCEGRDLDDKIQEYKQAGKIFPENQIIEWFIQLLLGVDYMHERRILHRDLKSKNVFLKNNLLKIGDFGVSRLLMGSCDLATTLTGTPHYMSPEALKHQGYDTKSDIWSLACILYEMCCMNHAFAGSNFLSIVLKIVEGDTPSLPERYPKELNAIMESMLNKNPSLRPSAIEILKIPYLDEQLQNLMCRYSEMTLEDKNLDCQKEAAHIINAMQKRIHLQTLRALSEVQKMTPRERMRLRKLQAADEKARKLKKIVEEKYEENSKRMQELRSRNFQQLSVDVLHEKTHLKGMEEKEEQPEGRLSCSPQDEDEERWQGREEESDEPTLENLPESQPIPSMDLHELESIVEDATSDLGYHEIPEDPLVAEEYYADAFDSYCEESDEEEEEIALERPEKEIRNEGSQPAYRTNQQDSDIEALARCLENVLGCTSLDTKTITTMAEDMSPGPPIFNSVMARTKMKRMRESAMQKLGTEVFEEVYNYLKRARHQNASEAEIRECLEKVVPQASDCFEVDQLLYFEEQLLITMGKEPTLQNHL

Misshapen-like kinase 1 = Misshapen-like kinase 1 (Homo sapiens, UniProt Q8N4C8); experiment: Selectivity interaction (Upstate Kinase Profiler service (Millipore)) EUB0000056c MINK1; settings: at 1 µM
Chain of Misshapen-like kinase 1 (Q8N4C8 whole entry, looked up): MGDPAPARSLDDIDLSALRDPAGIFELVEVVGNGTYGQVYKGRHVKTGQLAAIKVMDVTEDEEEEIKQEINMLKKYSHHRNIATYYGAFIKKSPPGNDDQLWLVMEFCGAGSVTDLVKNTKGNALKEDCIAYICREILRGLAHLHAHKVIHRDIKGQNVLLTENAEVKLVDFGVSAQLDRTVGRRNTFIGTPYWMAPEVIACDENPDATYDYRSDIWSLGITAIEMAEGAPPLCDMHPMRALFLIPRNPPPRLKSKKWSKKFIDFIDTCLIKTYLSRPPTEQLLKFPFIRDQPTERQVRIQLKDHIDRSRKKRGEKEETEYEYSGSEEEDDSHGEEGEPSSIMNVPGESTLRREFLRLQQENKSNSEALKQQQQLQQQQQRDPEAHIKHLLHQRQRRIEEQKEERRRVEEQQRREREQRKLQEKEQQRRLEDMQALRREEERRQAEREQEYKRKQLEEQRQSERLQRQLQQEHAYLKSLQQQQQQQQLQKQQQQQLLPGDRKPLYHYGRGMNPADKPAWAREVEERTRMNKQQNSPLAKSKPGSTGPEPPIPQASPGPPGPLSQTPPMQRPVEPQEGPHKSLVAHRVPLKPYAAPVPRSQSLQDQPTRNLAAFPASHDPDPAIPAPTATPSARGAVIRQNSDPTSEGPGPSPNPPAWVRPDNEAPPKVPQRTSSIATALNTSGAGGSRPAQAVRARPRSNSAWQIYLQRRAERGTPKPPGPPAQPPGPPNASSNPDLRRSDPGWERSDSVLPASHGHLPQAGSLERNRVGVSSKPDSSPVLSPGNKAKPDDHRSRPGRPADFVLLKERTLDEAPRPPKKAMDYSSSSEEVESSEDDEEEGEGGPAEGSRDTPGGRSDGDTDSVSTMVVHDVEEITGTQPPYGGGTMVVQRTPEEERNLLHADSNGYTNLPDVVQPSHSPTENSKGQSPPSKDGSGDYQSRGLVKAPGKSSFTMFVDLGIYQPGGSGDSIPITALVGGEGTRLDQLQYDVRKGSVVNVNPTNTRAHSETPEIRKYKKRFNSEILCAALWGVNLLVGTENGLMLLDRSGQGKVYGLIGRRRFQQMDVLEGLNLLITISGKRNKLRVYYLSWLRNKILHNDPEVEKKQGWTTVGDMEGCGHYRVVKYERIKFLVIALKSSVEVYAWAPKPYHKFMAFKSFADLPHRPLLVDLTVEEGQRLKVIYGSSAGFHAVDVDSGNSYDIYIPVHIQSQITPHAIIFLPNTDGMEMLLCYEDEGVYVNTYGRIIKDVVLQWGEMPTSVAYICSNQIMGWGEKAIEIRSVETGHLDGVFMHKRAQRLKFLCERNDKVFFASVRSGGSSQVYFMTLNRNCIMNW

[10] = biological target: Dual specificity protein kinase CLK1 (Homo sapiens, UniProt P49759); experiment: Selectivity interaction (KinomeScan (DiscoverX)) EUB0000655a CLK1; settings: at 10 µM
Chain of Dual specificity protein kinase CLK1 (P49759 whole entry, looked up): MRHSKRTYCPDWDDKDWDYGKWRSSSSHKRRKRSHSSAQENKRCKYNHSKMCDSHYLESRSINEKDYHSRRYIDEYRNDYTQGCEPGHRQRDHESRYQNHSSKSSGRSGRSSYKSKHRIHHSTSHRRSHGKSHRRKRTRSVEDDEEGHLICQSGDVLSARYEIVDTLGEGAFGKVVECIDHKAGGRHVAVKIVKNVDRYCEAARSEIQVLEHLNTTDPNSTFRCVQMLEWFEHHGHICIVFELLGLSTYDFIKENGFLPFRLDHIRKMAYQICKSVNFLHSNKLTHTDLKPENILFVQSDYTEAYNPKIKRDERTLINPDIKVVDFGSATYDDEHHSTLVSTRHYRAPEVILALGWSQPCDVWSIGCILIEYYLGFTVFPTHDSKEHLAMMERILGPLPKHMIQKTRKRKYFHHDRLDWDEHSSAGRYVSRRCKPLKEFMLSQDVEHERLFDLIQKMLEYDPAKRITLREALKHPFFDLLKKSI

[11] = biological target: Cyclin-dependent kinase 16 (Homo sapiens) (UniProt Q00536); experiment: Selectivity interaction (KinomeScan (DiscoverX)) EUB0000607a CDK16; settings: at 10 µM
[12] = biological target: Ribosomal protein S6 kinase alpha-5 (Homo sapiens) (UniProt O75582); experiment: Selectivity interaction (KinomeScan (DiscoverX)) EUB0000607a RPS6KA5; settings: at 10 µM
Chain of Ribosomal protein S6 kinase alpha-5 (Homo sapiens) (O75582 whole entry, looked up): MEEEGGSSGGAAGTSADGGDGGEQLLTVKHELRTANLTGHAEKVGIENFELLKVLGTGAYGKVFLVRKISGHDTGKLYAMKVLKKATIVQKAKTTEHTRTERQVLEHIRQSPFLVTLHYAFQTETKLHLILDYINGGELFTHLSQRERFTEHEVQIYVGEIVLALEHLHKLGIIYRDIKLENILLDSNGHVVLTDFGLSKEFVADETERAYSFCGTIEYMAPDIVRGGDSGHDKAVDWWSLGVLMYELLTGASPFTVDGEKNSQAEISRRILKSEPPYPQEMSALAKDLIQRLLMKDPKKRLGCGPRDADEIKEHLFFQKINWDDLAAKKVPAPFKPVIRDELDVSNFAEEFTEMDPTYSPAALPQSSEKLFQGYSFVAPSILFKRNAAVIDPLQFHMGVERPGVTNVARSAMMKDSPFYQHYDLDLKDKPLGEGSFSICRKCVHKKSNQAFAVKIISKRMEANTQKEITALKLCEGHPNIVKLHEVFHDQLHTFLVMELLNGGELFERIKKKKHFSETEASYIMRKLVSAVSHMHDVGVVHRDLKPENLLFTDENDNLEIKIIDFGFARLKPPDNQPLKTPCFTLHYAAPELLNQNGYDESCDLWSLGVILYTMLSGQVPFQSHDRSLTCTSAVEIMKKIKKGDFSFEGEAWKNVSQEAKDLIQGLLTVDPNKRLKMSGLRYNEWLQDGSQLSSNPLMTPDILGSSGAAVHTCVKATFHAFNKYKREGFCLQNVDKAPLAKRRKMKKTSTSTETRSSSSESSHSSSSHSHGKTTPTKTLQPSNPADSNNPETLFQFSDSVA

[13] = biological target: Ribosomal protein S6 kinase alpha-5 (Homo sapiens) (UniProt O75582); experiment: Selectivity interaction (Kinase panel (Z-LYTE Assay)) EUB0001632a RPS6KA5; settings: at 10 µM

Chain of Cyclin-dependent kinase 9 (P50750 whole entry): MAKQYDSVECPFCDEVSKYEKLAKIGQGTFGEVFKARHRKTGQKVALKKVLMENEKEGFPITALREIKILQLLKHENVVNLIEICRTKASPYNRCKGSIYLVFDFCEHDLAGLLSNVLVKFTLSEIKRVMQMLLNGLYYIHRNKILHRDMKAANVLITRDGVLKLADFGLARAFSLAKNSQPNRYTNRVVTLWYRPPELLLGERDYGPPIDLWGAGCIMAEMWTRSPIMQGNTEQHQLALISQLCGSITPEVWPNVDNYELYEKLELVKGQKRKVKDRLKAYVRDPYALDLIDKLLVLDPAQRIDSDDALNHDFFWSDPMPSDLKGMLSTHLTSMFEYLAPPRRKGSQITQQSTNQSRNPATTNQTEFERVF

C=CC(=O)Nc1ccc(C(=O)Nc2[nH]nc3c2CN(C(=O)N[C@H](CN(C)C)c2ccccc2)C3(C)C)cc1
% of engagement [1]: -78.1%

CC[C@@H]1[C@H](F)C(=O)N[C@@H]1COc1nccc2cc(C(N)=O)c(OC)cc12 [ZIMLOVISERTIB]
% of inhibition [2]: -5.9%

COCC(=O)NC/C=C/c1ccc2ncnc(Nc3ccc(Oc4ccc(C)nc4)c(C)c3)c2c1 [CP-724714]
% of control [3]: 100%

CCC(=O)N1CCN(c2ccc(-n3c(=O)ccc4cnc5ccc(-c6cnc7ccccc7c6)cc5c43)cc2C(F)(F)F)CC1
% of control [4]: 58%

CN(C)C/C=C/C(=O)Nc1ccc(C(=O)N2CCCC(Nc3ncc(Cl)c(-c4c[nH]c5ccccc45)n3)C2)cc1 (stereo not given)
% of control [5]: 67%

C=CC(=O)Nc1cc(-n2c(=O)ccc3cnc4ccc(-c5ccc(NS(C)(=O)=O)cc5)cc4c32)ccc1C
% of control ([6]; at 1 µM): 100% | % of control ([6]; at 10 µM): 74%

O[C@H]1CC[C@H](Nc2ncc3nc(Nc4c(F)cc(F)cc4F)n([C@H]4CCOC4)c3n2)CC1
% of control [7]: 89%

Cc1cc([C@@H](C)Nc2ccccc2C(=O)O)c2nc(N3CCOCC3)cc(=O)n2c1 [AZD-6482]
% of control [8]: 44%

N#Cc1cccc(-c2c[nH]c3ncnc(N4CCOCC4)c23)c1
% of control [9]: 100%

Cc1ccc(-c2ccc3c(ccc4sc5c(c43)NC[C@@H](C)NC5=O)n2)cn1
% of inhibition (Misshapen-like kinase 1): 11%

CN(C)CCOc1ccc(-c2nc(-c3ccncc3)c(-c3ccc4c(c3)CC/C4=N\O)[nH]2)cc1
% of control [10]: 77%

CNC(=O)Nc1ccc(-c2nc(N3CC4CCC(C3)O4)c3cnn(C4CCC5(CC4)OCCO5)c3n2)cc1
% of control [11]: 100% | % of control [12]: 86%

Cn1cc(-n2cnc3c(NCc4nc5cc(Cl)c(Cl)cc5[nH]4)nc(N4CCOCC4)nc32)cn1
% of control [13]: 0.545%
